Here are results for 28 compounds from patent US12213977B2, “Methods and compositions for treating melanoma” (THE REGENTS OF THE UNIVERSITY OF CALIFORNIA, priority 2017, dated 2025).

Test [1] deals with melanoma cell lines. Briefly: CTRP pharmacogenomics drug sensitivity (AUC) across melanoma cell lines grouped by predicted differentiation subtype. The class given is cell-based. The following applies: for specificity of cell death-inducing compound for dedifferentiated melanoma cells: CTRP drug sensitivity profiles by subtype; for sensitivity (CTRP AUC) with increased dedifferentiation status: melanoma cell lines by predicted subtype, ANOVA P<0.01, irrespective of mutation status. The text has this:
Through the prediction of subtypes from the CCLE and GDSC dataset, the inventors utilized the matching drug sensitivity profiles available from the pharmacogenomics-based Cancer Therapeutics Response Portal (CTRP) (Seashore-Ludlow et al., 2015). […] These compounds are erastin, (1S,3R)-RSL3, ML162, and M210 (FIG. 3B).
Dataset from Hoek et al of melanoma cell lines was obtained from GSE4845 and batch normalized using ComBat from the R sva package. Dataset from Mica et al for the melanocyte differentiation stage analysis was obtained from GSE45227. Gene expression profiles from samples representing the growth conditions for each specified stage of differentiation based on the original manuscript was used for analysis (day 0 embryonic stem cell, day 6 neural crest cell, day 11 melanoblast, and day 25 melanocyte). Primary melanocyte expression profiles (adult and neonatal) were used as control. Cell line expression profiles from the CCLE and GSDC databases were downloaded from the respective resource websites (http://www.broadinstitute.org/ccle; http://www.cancerrxgene.org/downloads). For each dataset, microarray probes were collapsed to gene symbol to the maximum average probe. To have a gene list compatible for all datasets used, the inventors took an intersection of genes from both RNASeq and microarray chip platforms, resulting in 10,545 genes.
Principal component analysis (PCA) was performed on mean centered data and all statistical analyses were performed in R (http://www.R-project.org/). Projections were calculated by matrix multiplication of the centered data to be projected using the rotation matrix determined from the PCA of the original source data. ANOVA p-values were determined using the non-parametric Kruskal-Wallis test at a significance threshold of 0.05. Reported p-values between pairs of subtypes were determined using Dunn post-hoc testing with multiple hypothesis correction using the Benjamini & Hochberg method. Heatmaps and figures were generated using pheatmap and ggplot2 R packages.

Test [2] concerns undifferentiated signature cell lines M296, M410 M229R, and M238R. Briefly: Cell death and rescue assays (resazurin viability, IncuCyte Cytotox Red, trypan blue exclusion). The format is cell-based, human. The protocol:
(§1) All cell viability assays were assayed in 96-well format with 5000 cells seeded per well. Dose-response curves were assayed using CellTiter-Glo luminescent cell viability assay (Promega, G7572). For all other measurements of viable cells, a fluorescent resazurin-based (Sigma-Aldrich, R7017) assay (AlamarBlue) was used with fluorescence measured at 570/600 ex/em wavelength. Percentage cell viability is reported as a percentage relative to the negative control treatment. Measurement of dead cells per time was measured by incubating treated cells with the IncuCyte Cytotox Red Reagent and imaging with IncuCyte ZOOM Live-Cell Imaging System (Essen BioScience). Trypan blue exclusion was also used for cell death assays.
On the technique in general: Resazurin is reduced to fluorescent resorufin, in cell work by metabolically active cells.

The subject of test [3] is M229, M397 and M249 melanoma cell lines. Briefly: Crystal violet staining (clonogenic) assays of long-term or cytokine combination treatment. The class given is cell-based, human. As for the experimental part:
(§2) Human melanoma cell lines of the M series were established from patient's biopsies under UCLA IRB approval #11-003254 as previously described (Søndergaard et al., 2010). Cells were cultured in RPMI 1640 with L-glutamine, 10% fetal bovine serum, and 1% penicillin, streptomycin and fungizone in a water-saturated incubator at 37° C. with 5% CO2. Cells were maintained and tested for mycoplasma, and regularly authenticated to their early passages using GenePrint® 10 System (Promega). Presence of mutations in the genes of interest were checked by OncoMap 3 or lontrone, and was confirmed by PCR and Sanger sequencing as previously described (Wong et al., 2014). Vemurafenib (PLX 4032), erastin, Z-VAD-FMK, R428 and piperlongumine were all purchased from Selleck Chemicals. Deferoxamine was obtained from Sigma-Aldrich. Staurosporine was obtained from Cayman Chemicals. Trolox was obtained from Acros Organics. Recombinant TNFα and IFNγ were both obtained from Peprotech. For the BRAFi timecourse study, M229 was treated with vemurafenib or DMSO for the indicated timepoints at twice the 50% inhibition concentration (500 nM). For the crystal violet assays, cells for seeded at low density in 6-well plates. The next day media was replaced by drug media and replenished every 2-3 days. Plates were stained with crystal violet solution (1% crystal violet, 10% methanol). Control wells were grown for 1 week and stained when 100% confluent.

Test [4] deals with human melanoma cell lines of the M series. Briefly: Cell viability dose-response (CellTiter-Glo) across M series melanoma cell lines. The format is cell-based. The protocol: as §2
as §1, with “Trypan blue exclusion was also used for cell death assays.” left out

Test [5] has as its system melanoma cell lines. Briefly: Immunoblot of differentiation biomarkers (AXL, NGFR, MITF, MART-1) and pERK. The following applies: IFNγ=100 U/mL, TNFα=1000 U/mL; M229, M397, M249. The class given is cell-based, human. The protocol: Cells were lysed in modified RIPA buffer (50 mM Tris-HCl (pH 7.5), […], 10 mM β-glycerophosphate, 1% NP-40, 0.25% sodium deoxycholate, 10 mM sodium pyrophosphate, 30 mM sodium fluoride, 1 mM EDTA, 1 mM vanadate, 20 μg/ml aprotinin, 20 μg/ml leupeptin, and 1 mM phenylmethylsulfonyl fluoride). Whole-cell lysates were resolved by SDS-PAGE on TruPAGE 4-15% gradient gels (Sigma-Aldrich) and blotted onto nitrocellulose membranes. Membranes were blocked overnight with 5% milk and then incubated sequentially with primary and then IRDye-conjugated secondary antibodies (Li-Cor). Blots were imaged using the Odyssey Infrared Imaging System (Li-Cor). Primary antibodies used for Western blot analysis were MITF (DGG7V, CST), MART-1 (A103, SCBT), and AXL (C89E7, CST).
(In general: Immunoblotting shows a protein as a band on a membrane.)

Entries after “also recorded” stand apart in the source; their conditions may differ. Where a SMILES comes first, the peptide text is derived from it. The star is where a group is joined. Cbz = O=C(OCc1ccccc1)*; CH2F = FC*

For `COc1cc(Nc2ncc(F)c(Nc3ccc4c(n3)NC(=O)C(C)(C)O4)n2)cc(OC)c1OC` [tamatinib], the “specificity of cell death-inducing compound for dedifferentiated melanoma cells” value in the test with melanoma cell lines [1] was “specificity for dedifferentiated melanoma cells”.
Same read-out and setting: the value for `Cc1cnc(Nc2ccc(OCCN3CCCC3)cc2)nc1Nc1cccc(S(=O)(=O)NC(C)(C)C)c1` [TG-101348] was “specificity for dedifferentiated melanoma cells”; that for `COc1cc(N2CCC(N3CCN(C)CC3)CC2)ccc1Nc1ncc(Cl)c(Nc2ccccc2S(=O)(=O)C(C)C)n1` [NVP-TAE684] was “specificity for dedifferentiated melanoma cells”; that for AZD4547 was “specificity for dedifferentiated melanoma cells”.
For the compound `Cc1c(C)c2c(c(C)c1O)CCC(C)(C(=O)O)O2` (stereo not shown) [Trolox], the “rescue of erastin-induced decrease in cell viability” value in test [2] (100 μM DFO or 150 μM Trolox with erastin) was “almost completely rescued”.
For `Cn1cc(-c2ccc3nnc(Sc4ccc5ncccc5c4)n3n2)cn1` [SGX-523], the “specificity of cell death-inducing compound for dedifferentiated melanoma cells” value in the test with melanoma cell lines [1] is listed as “specificity for dedifferentiated melanoma cells”.
As for `O=C1c2ccccc2-c2nc3nonc3nc21` [SMER-3], in the test with melanoma cell lines [1], the “specificity of cell death-inducing compound for dedifferentiated melanoma cells” value is on record as “specificity for dedifferentiated melanoma cells”.
As to `CC(C)[C@H](O)C(=O)N[C@@H](C)C(=O)N[C@@H]1C(=O)N(C)CCc2ccccc21` [Semagacestat], the “specificity of cell death-inducing compound for dedifferentiated melanoma cells” value with melanoma cell lines [1] is on record as “specificity for dedifferentiated melanoma cells”.
For the compound `COc1ccc(N(C(=O)CCl)C(C(=O)NCCc2ccccc2)c2cccs2)cc1Cl` (stereo not shown) [ML162], the “sensitivity (CTRP AUC) with increased dedifferentiation status” value in the test on melanoma cell lines [1] is reported as “increased sensitivity”.
For `COC(=O)C[C@H](NC(=O)[C@H](C)NC(=O)[C@@H](NC(=O)OCc1ccccc1)C(C)C)C(=O)CF` [Z-VAD-FMK] (Cbz-Val-Ala-Asp(OMe)-CH2F), in test [2] (trypan blue, 24 hr 1 μM staurosporine, Z-VAD-FMK pre-treatment 1 hr, positive control), the “rescue of apoptosis induced by staurosporine” value is “could rescue”. For the same compound, the “rescue of death induced by erastin treatment” value in test [2] (trypan blue, 24 hr 5 μM erastin, Z-VAD-FMK pre-treatment 1 hr) is listed as “could not rescue”.
Regarding `O=C(c1cc(Cc2n[nH]c(=O)c3ccccc23)ccc1F)N1CCN(C(=O)C2CC2)CC1` [olaparib], in the test on melanoma cell lines [1], the “specificity of cell death-inducing compound for dedifferentiated melanoma cells” value was “specificity for dedifferentiated melanoma cells”.
Regarding `Cc1c[nH]c(-c2cnc(NCCNc3ccc(C#N)cn3)nc2-c2ccc(Cl)cc2Cl)n1` [CHIR-99021], the “specificity of cell death-inducing compound for dedifferentiated melanoma cells” value with melanoma cell lines [1] is on record as “specificity for dedifferentiated melanoma cells”.
Same read-out and setting: the value for `CC1(C)CC(=O)c2c(C(F)(F)F)nn(-c3ccc(C(N)=O)c(N[C@H]4CC[C@H](O)CC4)c3)c2C1` [SNX-2112] was “specificity for dedifferentiated melanoma cells”.
Consider `Cc1onc(C(=O)N2CCN(C(c3ccc(Cl)cc3)c3ccc(Cl)cc3)CC2)c1[N+](=O)[O-]` [M210, ML210], for which the “sensitivity (CTRP AUC) with increased dedifferentiation status” value in the test on melanoma cell lines [1] was “increased sensitivity”.
As to `O=c1c2ccccc2nc(/C=C/c2cccnc2)n1Cc1ccccc1` [B02], the “specificity of cell death-inducing compound for dedifferentiated melanoma cells” value in the test on melanoma cell lines [1] is on record as “specificity for dedifferentiated melanoma cells”.
Same read-out and setting: in the case of `O=C(c1ccc(/C=C/c2n[nH]c3ccccc23)cc1)N1CCNCC1` [KW-2449] it was “specificity for dedifferentiated melanoma cells”; in that of `Cc1c(N)nc([C@H](CC(N)=O)NC[C@H](N)C(N)=O)nc1C(=O)N[C@H](C(=O)N[C@H](C)[C@@H](O)[C@H](C)C(=O)N[C@H](C(=O)NCCc1nc(-c2nc(C(=O)NCCC[S+](C)C)cs2)cs1)[C@@H](C)O)[C@@H](O[C@@H]1O[C@@H](CO)[C@@H](O)[C@H](O)[C@@H]1O[C@H]1O[C@H](CO)[C@@H](O)[C@H](OC(N)=O)[C@@H]1O)c1c[nH]cn1.[Br-]` [bleomycin A2], “specificity for dedifferentiated melanoma cells”.
Consider `COC(=O)c1ccc([C@H]2c3[nH]c4ccccc4c3C[C@H](C(=O)OC)N2C(=O)CCl)cc1` [RSL3, (1S,3R)-RSL3], for which the “sensitivity upon IFNγ cytokine treatment” value in test [3] (M249, higher doses (5 μM erastin, 500 nM RSL3)) is given as “increased sensitivity”. Also, in test [3] (combined with vemurafenib (1 μM), 16-24 days, M229, M397, M249), the long-term persisting cells entry is given as “substantial decrease”. Moreover, the “cell death compared to cytokine-only or untreated cells” value in test [3] (in the presence of TNFα or IFNγ, 7 days) is given as “increased cell death”. Besides, the “sensitivity (CTRP AUC) with increased dedifferentiation status” value in the test on melanoma cell lines [1] was “increased sensitivity”. In test [4] (acquired resistance lines (P vs R) or long-term adaptive resistance (44 days)), the “sensitivity in cell lines with vemurafenib-induced dedifferentiation” value was “increased sensitivity”. In addition, in test [4] (across M series melanoma cell lines), the sensitivity with dedifferentiation result is given as “increased sensitivity”.
Regarding `COc1cc(/C=C/C(=O)N2CCC=CC2=O)cc(OC)c1OC` [piperlongumine], in test [4] (among subtypes and vemurafenib resistant lines), the “differentiation stage-associated trend in sensitivity” value is reported as “does not show any differentiation stage-associated trend; also recorded: no difference in sensitivity”.
On to `CCc1c2c(nc3ccc(O)cc13)-c1cc3c(c(=O)n1C2)COC(=O)[C@]3(O)CC` [SN-38], for which, in the test with melanoma cell lines [1], the “specificity of cell death-inducing compound for dedifferentiated melanoma cells” value is “specificity for dedifferentiated melanoma cells”.
On to ML334 diastereomer, for which the “specificity of cell death-inducing compound for dedifferentiated melanoma cells” value in the test on melanoma cell lines [1] is “specificity for dedifferentiated melanoma cells”.
For the compound TNFα, the “differentiation state (up-regulation of AXL, decreased MITF or MART-1)” value in the test with melanoma cell lines [5] was “induced de-differentiation”.
Consider `COc1ccc(C2C(C(=O)Nc3ccccc3)=C(C)N=c3sc(=Cc4cn(Cc5ccccc5)c5ccccc45)c(=O)n32)cc1` (stereo not shown) [BCL-LZH-4], for which the “specificity of cell death-inducing compound for dedifferentiated melanoma cells” value in the test with melanoma cell lines [1] is reported as “specificity for dedifferentiated melanoma cells”.
In the case of `COC(=O)c1ccc2c(c1)NC(=O)/C2=C(\Nc1ccc(N(C)C(=O)CN2CCN(C)CC2)cc1)c1ccccc1` [nintedanib], in the test on melanoma cell lines [1], the “specificity of cell death-inducing compound for dedifferentiated melanoma cells” value is recorded as “specificity for dedifferentiated melanoma cells”.
Same read-out and setting: in the case of `C=C1[C@@H](C)[C@H]2[C@H](Cc3ccccc3)NC(=O)[C@]23OC(=O)/C=C/[C@H](O)CCC[C@@H](C)C/C=C/[C@H]3[C@@H]1O` [cytochalasin B] it was “specificity for dedifferentiated melanoma cells”.
`COc1cc2nccc(Oc3ccc(NC(=O)Nc4ccc(F)cc4F)c(F)c3)c2cc1OC` [Ki8751]: the “specificity of cell death-inducing compound for dedifferentiated melanoma cells” value with melanoma cell lines [1] is listed as “specificity for dedifferentiated melanoma cells”.
Turning to `C=CC(=O)Nc1cc2c(Nc3ccc(F)c(Cl)c3)ncnc2cc1OCCCN1CCOCC1` [canertinib], the “specificity of cell death-inducing compound for dedifferentiated melanoma cells” value with melanoma cell lines [1] is “specificity for dedifferentiated melanoma cells”.
Turning to `NC(=O)Nc1cc(-c2cccc(F)c2)sc1C(=O)N[C@H]1CCCNC1` [AZD7762], the “specificity of cell death-inducing compound for dedifferentiated melanoma cells” value with melanoma cell lines [1] is reported as “specificity for dedifferentiated melanoma cells”.
